Source: US20140128606A1, “ANTIPRURITIC AGENT” (Toray Industries, Inc., priority 2011, published 2014)
Structures can show the parent of a compound that is named as a salt. Where two headings read alike, the source gives them in different places.

Key:
[1] = test system: substance P-induced scratching behavior; test: Inhibitory effect on substance P-induced scratching behavior in mice (MicroAct automatic detection); type: in vivo, mouse; settings: for Number of scratching behavior (means ± standard error): counted for 15 minutes
Source text: Substance P-induced scratching behavior in mice which is an intractable pruritus model was induced by the method described in a known document (Togashi et al., European Journal of Pharmacology, 2002, Vol. 435, p. 259 and the like). Further, evaluation of the scratching behavior was objectively carried out by automatic detection using MicroAct (NeuroScience, Inc.) based on the method described in a known document (Hashimoto et al., Allergology International, 2004, Vol. 53, p. 349).
More particularly, at least five days before the evaluation of drug effect, neodymium magnets (diameter: 1 mm, length: 3 mm) coated with Parafilm were subcutaneously inserted into the insteps of both hind limbs of 5 to 7 week-old male ICR mouse (Japan SLC, Inc.) under isoflurane anesthesia. One or two days before the day of the evaluation of drug effect, the hair of the rostral part of the back of the mouse was shaved with a hair clipper under isoflurane anesthesia. At least one hour before the start of the measurement of the number of scratching behavior, each mouse (6 to 8 weeks old) was individually placed in a chamber for measurement (diameter: 11 cm, height: 18 cm) for acclimation. After the acclimation, substance P (5 mmol/L) or phosphate-buffered saline (hereinafter referred to as PBS) as a solvent thereof was intradermally administered (0.05 mL/site) into the rostral part of the back, and the measurement of the number of scratching behavior was started immediately after the administration. The number of scratching behavior was recorded by amplifying electric current induced by the movement of the magnets inserted in the hind limbs in a round coil surrounding the chamber for measurement. The measurement was carried out under unattended environment, and the evaluation of the drug effect was carried out by using the number of scratching behavior occurred for 15 minutes after the start of the measurement as an index.
A test compound or a solvent thereof was administered in an amount of 10 mL/kg 30 to 60 minutes before the start of the measurement of the number of scratching behavior. Varenicline tartrate (Tocris Bioscience) was dissolved in PBS and intraperitoneally administered in a dose of 1, 3 or 10 mg/kg 60 minutes before the start of the measurement of the number of scratching behavior. N-(1-azabicyclo[2.2.2]oct-3(R)-yl)-4-chlorobenzamide hydrochloride (PNU-282987) hydrate (Sigma-Aldrich) was dissolved in PBS and intraperitoneally administered in a dose of 0.3 or 1 mg/kg 45 minutes before the start of the measurement of the number of scratching behavior. The compound of Reference Example 1 was dissolved in PBS and intraperitoneally administered in a dose of 0.1 or 0.3 mg/kg 30 minutes before the start of the measurement of the number of scratching behavior. The compound of Reference Example 2 was dissolved in PBS and intraperitoneally administered in a dose of 1, 3, or 10 mg/kg 45 minutes before the start of the measurement of the number of scratching behavior. The compound of Reference Example 3 was dissolved in distilled water and orally administered in a dose of 1, 3, or 10 mg/kg 30 minutes before the start of the measurement of the number of scratching behavior. The compound of Reference Example 4 was dissolved in PBS and intraperitoneally administered in a dose of 1, 3, or 10 mg/kg 45 minutes before the start of the measurement of the number of scratching behavior. The compound of Reference Example 5 was dissolved in PBS and intraperitoneally administered in a dose of 1, 3, or 10 mg/kg 30 minutes before the start of the measurement of the number of scratching behavior. The compound of Reference Example 6 was dissolved in PBS and intraperitoneally administered in a dose of 1, 3, or 10 mg/kg, 30 minutes before the start of the measurement of the number of scratching behavior. […]

[2] = test system: substance P-induced scratching behavior; settings: literature; cited from earlier work
[3] = Mus musculus, ip, read-out: Inhibition rate
[4] = i.p., 0.3 mg/kg, substance P 250 nmol/site
[5] = i.p., 1 mg/kg, substance P 250 nmol/site
[6] = Mus musculus, ip, 0.1 mg/kg, substance P 250 nmol/site, read-out: Inhibition rate
[7] = Mus musculus, ip, 0.3 mg/kg, substance P 250 nmol/site, read-out: Inhibition rate
[8] = i.p., 0.1 mg/kg, substance P 250 nmol/site
[9] = Mus musculus, ip, 1 mg/kg, substance P 250 nmol/site, read-out: Inhibition rate
[10] = Mus musculus, ip, 3 mg/kg, substance P 250 nmol/site, read-out: Inhibition rate
[11] = Mus musculus, ip, 10 mg/kg, substance P 250 nmol/site, read-out: Inhibition rate
[12] = i.p., 3 mg/kg, substance P 250 nmol/site
[13] = i.p., 10 mg/kg, substance P 250 nmol/site
[14] = p.o., 10 mg/kg, substance P 250 nmol/site
[15] = Mus musculus, po, read-out: Inhibition rate

Cl.O=C(N[C@H]1CN2CCC1CC2)c1ccc(Cl)cc1 [PNU-282987 hydrate, N-(1-azabicyclo[2.2.2]oct-3(R)-yl)-4-chlorobenzamide hydrochloride, reference compound]
inhibition at 0.3 mg/kg [1, 3]: 42% | inhibition at 1 mg/kg [1, 3]: 72% | Number of scratching behavior (means ± standard error) [1, 4]: 81 ± 9 | Number of scratching behavior (means ± standard error) [1, 5]: 48 ± 8

Cl.Clc1ccc(OC[C@H]2CCN2)cn1 [Reference Example 1, (R)-2-Chloro-5-(2-azetidinylmethoxy)pyridine hydrochloride]
inhibition at 0.1 mg/kg [1, 6]: 107% | inhibition at 0.3 mg/kg [1, 7]: 121% | Number of scratching behavior (means ± standard error) [1, 8]: 21 ± 8 | Number of scratching behavior (means ± standard error) [1, 4]: 6 ± 2

O=C(N[C@@H]1C2CCN(CC2)[C@H]1Cc1cccnc1)c1cc2ccccc2o1 [Reference Example 2, N-(2(S)-(Pyridin-3-ylmethyl)-1-azabicyclo[2.2.2]oct-3(R)-yl)-1-benzofuran-2-carboxamide]
inhibition at 1 mg/kg [1, 9]: 71% | inhibition at 3 mg/kg [1, 10]: 38% | inhibition at 10 mg/kg [1, 11]: 62% | Number of scratching behavior (means ± standard error) [1, 5]: 67 ± 10 | Number of scratching behavior (means ± standard error) [1, 12]: 97 ± 14 | Number of scratching behavior (means ± standard error) [1, 13]: 75 ± 8

Cl.O=C(N[C@H]1CN2CCC1CC2)c1cc2cccc(Cl)c2s1 [Reference Example 3, (R)-7-Chloro-N-(quinuclidin-3-yl)benzo[b]thiophene-2-carboxamide hydrochloride]
inhibition at 1 mg/kg ([1]; Mus musculus, po, 1 mg/kg, substance P 250 nmol/site, read-out: Inhibition rate): 32% | inhibition at 3 mg/kg ([1]; Mus musculus, po, 3 mg/kg, substance P 250 nmol/site, read-out: Inhibition rate): 51% | inhibition at 10 mg/kg ([1]; Mus musculus, po, 10 mg/kg, substance P 250 nmol/site, read-out: Inhibition rate): 79% | Number of scratching behavior (means ± standard error) ([1]; p.o., 1 mg/kg, substance P 250 nmol/site): 71 ± 14 | Number of scratching behavior (means ± standard error) ([1]; p.o., 3 mg/kg, substance P 250 nmol/site): 57 ± 13 | Number of scratching behavior (means ± standard error) [1, 14]: 36 ± 8

Cl.O=C(Oc1ccc(Br)cc1)N1CCN2CCC1CC2 [Reference Example 4, 1,4-Diazabicyclo[3.2.2]nonane-4-carboxylic acid 4-bromophenyl ester hydrochloride]
inhibition at 1 mg/kg [1, 3]: 32% | inhibition at 3 mg/kg [1, 3]: 63% | inhibition at 10 mg/kg [1, 3]: 80% | Number of scratching behavior (means ± standard error) [1, 5]: 89 ± 12 | Number of scratching behavior (means ± standard error) [1, 12]: 59 ± 14 | Number of scratching behavior (means ± standard error) [1, 13]: 42 ± 6

Cc1ccc2oc(N3CCN4CCC3CC4)nc2n1.Cl [Reference Example 5, 2-(1,4-Diazabicyclo[3.2.2]non-4-yl)-5-methyloxazolo[4,5-b]pyridine hydrochloride]
inhibition at 1 mg/kg [1, 9]: 25% | inhibition at 3 mg/kg [1, 10]: 46% | inhibition at 10 mg/kg [1, 11]: 59% | Number of scratching behavior (means ± standard error) [1, 5]: 82 ± 6 | Number of scratching behavior (means ± standard error) [1, 12]: 62 ± 11 | Number of scratching behavior (means ± standard error) [1, 13]: 50 ± 12

Cl.O=C(CCCCN1CCOCC1)Nc1ccc(-c2cccnc2)cc1 [Reference Example 6, 5-(4-Morpholinyl)-N-(4-(3-pyridyl)phenyl)pentanamide hydrochloride]
inhibition at 1 mg/kg [1, 9]: 32% | inhibition at 3 mg/kg [1, 10]: 52% | inhibition at 10 mg/kg [1, 11]: 104% | Number of scratching behavior (means ± standard error) [1, 5]: 94 ± 15 | Number of scratching behavior (means ± standard error) [1, 12]: 78 ± 10 | Number of scratching behavior (means ± standard error) [1, 13]: 36 ± 5

CN1C[C@@H]2CN(c3ccc(-c4ccccc4)nn3)C[C@@H]2C1 [Reference Example 7, cis-2-methyl-5-(6-phenylpyridazin-3-yl)perhydropyrrolo[3,4-c]pyrrole fumarate]
inhibition at 0.3 mg/kg [1, 3]: 25% | inhibition at 1 mg/kg [1, 3]: 79% | inhibition at 3 mg/kg [1, 3]: 66% | Number of scratching behavior (means ± standard error) [1, 4]: 101 ± 20 | Number of scratching behavior (means ± standard error) [1, 5]: 37 ± 8 | Number of scratching behavior (means ± standard error) [1, 12]: 52 ± 9

C[C@H](OC(=O)N[C@@H]1CN2CCC1CC2)c1ccccc1F [Reference Example 8, (S)-1-(2-fluorophenyl)ethyl(S)-quinuclidin-3-ylcarbamate]
inhibition at 10 mg/kg [1, 15]: 41% | inhibition at 30 mg/kg [1, 15]: 49% | Number of scratching behavior (means ± standard error) [1, 14]: 92 ± 17 | Number of scratching behavior (means ± standard error) ([1]; p.o., 30 mg/kg, substance P 250 nmol/site): 83 ± 19

O=C(N[C@H]1CN2CCC1CC2)c1cc2ccoc2cn1 [Reference Example 9, N-(1-Azabicyclo[2.2.2]oct-3(R)-yl)furo[2,3-c]pyridine-5-carboxamide dihydrochloride]
inhibition at 0.1 mg/kg [1, 6]: 10% | inhibition at 0.3 mg/kg [1, 7]: 43% | inhibition at 1 mg/kg [1, 9]: 70% | Number of scratching behavior (means ± standard error) [1, 8]: 109 ± 21 | Number of scratching behavior (means ± standard error) [1, 4]: 76 ± 18 | Number of scratching behavior (means ± standard error) [1, 5]: 50 ± 10

Cl.O=C(N[C@H]1CN2CCC1CC2)c1ccc2c(c1)OCCO2 [Reference Example 10, N-(1-Azabicyclo[2.2.2]oct-3(R)-yl)-2,3-dihydro-1,4-benzodioxin-6-carboxamide hydrochloride]
inhibition at 0.1 mg/kg [1, 3]: 3% | inhibition at 0.3 mg/kg [1, 3]: 17% | inhibition at 1 mg/kg [1, 3]: 58% | Number of scratching behavior (means ± standard error) [1, 8]: 131 ± 18 | Number of scratching behavior (means ± standard error) [1, 4]: 115 ± 19 | Number of scratching behavior (means ± standard error) [1, 5]: 69 ± 10

O=C(O)Cc1ccccc1Nc1c(Cl)cccc1Cl [diclofenac]
Inhibition of substance P-induced scratching behavior in mice (in words) [2]: not inhibited

COc1ccc2c(c1)c(CC(=O)O)c(C)n2C(=O)c1ccc(Cl)cc1 [indomethacin]
Inhibition of substance P-induced scratching behavior in mice (in words) [2]: not inhibited

C=CC[C@@H]1/C=C(\C)C[C@H](C)C[C@H](OC)[C@H]2O[C@@](O)(C(=O)C(=O)N3CCCC[C@H]3C(=O)O[C@H](/C(C)=C/[C@@H]3CC[C@@H](O)[C@H](OC)C3)[C@H](C)[C@@H](O)CC1=O)[C@H](C)C[C@@H]2OC [tacrolimus]
Inhibition of substance P-induced scratching behavior in mice (in words) [2]: not inhibited
